Source: publication PMC9147192, “Small Molecule Arranged Thermal Proximity Coaggregation (smarTPCA)—A Novel Approach to Characterize Protein–Protein Interactions in Living Cells by Similar Isothermal Dose–Responses” (International Journal of Molecular Sciences, 2022)

Columns and labels:
STX4 = STX4 (Homo sapiens, UniProt Q12846); assay: TPP-CCR in living HL-60 cells
MYLK = MYLK (Homo sapiens, UniProt Q15746); assay: TPP-CCR in living HL-60 cells
USP24 = USP24 (Homo sapiens, UniProt Q9UPU5); assay: TPP-CCR in living HL-60 cells
MAPKAPK2p = assay: CETSA in living HL-60 cells, immunoblot; type: cell-based, Homo sapiens
Experimental: First, we conducted CETSA experiments according to Jafari et al.. […] Subsequent SDS-PAGE and immunoblotting were performed according to optimized conditions allowing for parallel detection of MAPK14, MAPKAPK2, MAPKAPK3, and GSK-3α (Supplementary Figure S1).
HL-60 cells (ATCC No. CCL-240) were expanded to about […] in 80 mL cell culture medium (RPMI-1640 supplemented with 10% (v/v) FBS, 1% (v/v) penicillin-streptomycin and 1% (v/v) L-glutamine solution) and divided into four aliquots (20 mL each, 25 million cells per flask). […] The same volume of DMSO was added to the remaining aliquot serving as the vehicle (DMSO) control. After incubation (1 h, 37 °C, 5% CO2, in cell culture CO2 incubator), the cell suspensions were transferred into 50 mL conical tubes, cell number and viability were determined, and after centrifugation (300 relative centrifugal force (rcf), 3 min, room temperature (r.t.)), the supernatants were completely removed and discarded. The cells were washed using 20 mL Dulbecco’s phosphate-buffered saline (PBS), respectively, by resuspension and centrifugation (300 rcf, 3 min, r.t.). After the complete removal of the supernatants, the cells were transferred into pre-weighed 2 mL Eppendorf tubes using 0.5 mL PBS (r.t.), respectively, for resuspending. After centrifugation (300 rcf, 3 min, r.t.) and removing as much as possible of the supernatants, the cell wet weights were determined.
The suspensions were shortly centrifuged (1 s or less) using a benchtop centrifuge that was equipped with an inset for PCR tubes to release trapped air and to achieve an even liquid level without pelleting the cells. The 100 µL cell suspensions were then temperature treated by a 7 min pre-incubation at r.t., a 3 min incubation at the following different temperatures in the PCR cycler (DNA Engine Tetrad 2, lid temperature 70 °C, gradient block 1: 36–55 °C, gradient block 2: 48–67 °C), and a 3 min post-incubation at r.t. in a metal heating block for uniform heat dissipation.
The cells were lysed by four freeze/thaw cycles consisting of thawing the samples (in a heat block set to 25 °C and shaking at 1250 rpm) accompanied by mixing them several times by inversion and then shock freezing them again in liquid nitrogen. […]
For each sample set comprising either ten temperature range samples or ten compound concentration range samples, the same volume of the cell extracts containing the fraction of soluble, non-denatured proteins was used for further analysis. This volume was determined using the two lowest temperature samples (36.5 and 41.2 °C) per temperature range sample set so that they contained an average of 5 µg total protein (e.g., 2.78 µL for all temperature range samples of a sample set whose two lowest temperature samples contain an average of 1.8 mg/mL protein). […]

MAPK3 = molecular target: T1, MAPK3 (Homo sapiens, UniProt P27361); assay: TPP-CCR in living HL-60 cells; type: cell-based
T1 construct: endogenous in cells; host or cells: HL-60 (ATCC CCL-240)
From the text: Therefore, we performed TPP with compound concentration range (TPP-CCR) experiments according to published procedures. In brief, after preparing tryptic peptides from the non-denatured protein fractions (used for immunoblotting in the previous sections) applying the SP3 method, the peptides were labeled using TMT10plex, coding for inhibitor concentration, and the samples belonging to a TMT set were combined, offline high-pH fractionated, and analyzed by MS.
HL-60 cells were expanded as described above for CETSA and TPP-TR to 1.25 million cells per milliliter. […] A number of 2.5 million cells in 2 mL of medium were added to each tube and incubated (1 h, 37 °C). […]
For each sample set comprising ten compound concentration range samples, a same volume of the cell extracts containing the fraction of soluble, non-denatured proteins, corresponding to an average of 5 µg total protein, was used for further analysis. The calculated volume was respectively transferred into PCR tubes of a tube strip and supplemented with SDS sample buffer without DTT and bromophenol blue (final concentrations: 7.5% glycerol, 3% SDS, 37.5 mM Tris/HCl pH 7.0) and ddH2O to a final volume of 10 µL, respectively. […]

MAPKAPK3 = system: MAPKAPK3; design: method as in PMID 23398362; details: cited from earlier work
MAPKAPK2 = system: MAPKAPK2; design: method as in PMID 23398362; details: cited from earlier work
NAPG = NAPG (Homo sapiens, UniProt Q99747); assay: TPP-CCR in living HL-60 cells
MAPK14 = details: cited from earlier work
[1] = living HL-60 cells, […] °C, TMT-MS
[2] = living HL-60 cells, 20 µM inhibitor

Sequence of STX4 (Q12846 whole entry): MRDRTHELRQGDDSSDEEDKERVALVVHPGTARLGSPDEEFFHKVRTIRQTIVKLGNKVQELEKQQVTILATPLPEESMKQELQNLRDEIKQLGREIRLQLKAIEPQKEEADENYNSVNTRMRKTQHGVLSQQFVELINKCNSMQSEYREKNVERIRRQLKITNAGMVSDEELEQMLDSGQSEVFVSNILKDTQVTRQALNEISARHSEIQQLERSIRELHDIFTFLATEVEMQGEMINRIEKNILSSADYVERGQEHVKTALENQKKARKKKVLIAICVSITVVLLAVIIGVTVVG
Sequence of NAPG (Q99747 whole entry): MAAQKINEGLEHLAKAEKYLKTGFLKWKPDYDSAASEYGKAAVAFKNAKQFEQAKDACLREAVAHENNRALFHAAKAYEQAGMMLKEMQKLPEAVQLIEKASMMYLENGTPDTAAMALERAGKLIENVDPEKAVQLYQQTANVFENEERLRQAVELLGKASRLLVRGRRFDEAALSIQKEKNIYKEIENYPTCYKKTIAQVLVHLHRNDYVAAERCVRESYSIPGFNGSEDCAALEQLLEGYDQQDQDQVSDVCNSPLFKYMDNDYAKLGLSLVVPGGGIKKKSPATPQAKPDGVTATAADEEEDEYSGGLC
Sequence of USP24 (Q9UPU5 whole entry): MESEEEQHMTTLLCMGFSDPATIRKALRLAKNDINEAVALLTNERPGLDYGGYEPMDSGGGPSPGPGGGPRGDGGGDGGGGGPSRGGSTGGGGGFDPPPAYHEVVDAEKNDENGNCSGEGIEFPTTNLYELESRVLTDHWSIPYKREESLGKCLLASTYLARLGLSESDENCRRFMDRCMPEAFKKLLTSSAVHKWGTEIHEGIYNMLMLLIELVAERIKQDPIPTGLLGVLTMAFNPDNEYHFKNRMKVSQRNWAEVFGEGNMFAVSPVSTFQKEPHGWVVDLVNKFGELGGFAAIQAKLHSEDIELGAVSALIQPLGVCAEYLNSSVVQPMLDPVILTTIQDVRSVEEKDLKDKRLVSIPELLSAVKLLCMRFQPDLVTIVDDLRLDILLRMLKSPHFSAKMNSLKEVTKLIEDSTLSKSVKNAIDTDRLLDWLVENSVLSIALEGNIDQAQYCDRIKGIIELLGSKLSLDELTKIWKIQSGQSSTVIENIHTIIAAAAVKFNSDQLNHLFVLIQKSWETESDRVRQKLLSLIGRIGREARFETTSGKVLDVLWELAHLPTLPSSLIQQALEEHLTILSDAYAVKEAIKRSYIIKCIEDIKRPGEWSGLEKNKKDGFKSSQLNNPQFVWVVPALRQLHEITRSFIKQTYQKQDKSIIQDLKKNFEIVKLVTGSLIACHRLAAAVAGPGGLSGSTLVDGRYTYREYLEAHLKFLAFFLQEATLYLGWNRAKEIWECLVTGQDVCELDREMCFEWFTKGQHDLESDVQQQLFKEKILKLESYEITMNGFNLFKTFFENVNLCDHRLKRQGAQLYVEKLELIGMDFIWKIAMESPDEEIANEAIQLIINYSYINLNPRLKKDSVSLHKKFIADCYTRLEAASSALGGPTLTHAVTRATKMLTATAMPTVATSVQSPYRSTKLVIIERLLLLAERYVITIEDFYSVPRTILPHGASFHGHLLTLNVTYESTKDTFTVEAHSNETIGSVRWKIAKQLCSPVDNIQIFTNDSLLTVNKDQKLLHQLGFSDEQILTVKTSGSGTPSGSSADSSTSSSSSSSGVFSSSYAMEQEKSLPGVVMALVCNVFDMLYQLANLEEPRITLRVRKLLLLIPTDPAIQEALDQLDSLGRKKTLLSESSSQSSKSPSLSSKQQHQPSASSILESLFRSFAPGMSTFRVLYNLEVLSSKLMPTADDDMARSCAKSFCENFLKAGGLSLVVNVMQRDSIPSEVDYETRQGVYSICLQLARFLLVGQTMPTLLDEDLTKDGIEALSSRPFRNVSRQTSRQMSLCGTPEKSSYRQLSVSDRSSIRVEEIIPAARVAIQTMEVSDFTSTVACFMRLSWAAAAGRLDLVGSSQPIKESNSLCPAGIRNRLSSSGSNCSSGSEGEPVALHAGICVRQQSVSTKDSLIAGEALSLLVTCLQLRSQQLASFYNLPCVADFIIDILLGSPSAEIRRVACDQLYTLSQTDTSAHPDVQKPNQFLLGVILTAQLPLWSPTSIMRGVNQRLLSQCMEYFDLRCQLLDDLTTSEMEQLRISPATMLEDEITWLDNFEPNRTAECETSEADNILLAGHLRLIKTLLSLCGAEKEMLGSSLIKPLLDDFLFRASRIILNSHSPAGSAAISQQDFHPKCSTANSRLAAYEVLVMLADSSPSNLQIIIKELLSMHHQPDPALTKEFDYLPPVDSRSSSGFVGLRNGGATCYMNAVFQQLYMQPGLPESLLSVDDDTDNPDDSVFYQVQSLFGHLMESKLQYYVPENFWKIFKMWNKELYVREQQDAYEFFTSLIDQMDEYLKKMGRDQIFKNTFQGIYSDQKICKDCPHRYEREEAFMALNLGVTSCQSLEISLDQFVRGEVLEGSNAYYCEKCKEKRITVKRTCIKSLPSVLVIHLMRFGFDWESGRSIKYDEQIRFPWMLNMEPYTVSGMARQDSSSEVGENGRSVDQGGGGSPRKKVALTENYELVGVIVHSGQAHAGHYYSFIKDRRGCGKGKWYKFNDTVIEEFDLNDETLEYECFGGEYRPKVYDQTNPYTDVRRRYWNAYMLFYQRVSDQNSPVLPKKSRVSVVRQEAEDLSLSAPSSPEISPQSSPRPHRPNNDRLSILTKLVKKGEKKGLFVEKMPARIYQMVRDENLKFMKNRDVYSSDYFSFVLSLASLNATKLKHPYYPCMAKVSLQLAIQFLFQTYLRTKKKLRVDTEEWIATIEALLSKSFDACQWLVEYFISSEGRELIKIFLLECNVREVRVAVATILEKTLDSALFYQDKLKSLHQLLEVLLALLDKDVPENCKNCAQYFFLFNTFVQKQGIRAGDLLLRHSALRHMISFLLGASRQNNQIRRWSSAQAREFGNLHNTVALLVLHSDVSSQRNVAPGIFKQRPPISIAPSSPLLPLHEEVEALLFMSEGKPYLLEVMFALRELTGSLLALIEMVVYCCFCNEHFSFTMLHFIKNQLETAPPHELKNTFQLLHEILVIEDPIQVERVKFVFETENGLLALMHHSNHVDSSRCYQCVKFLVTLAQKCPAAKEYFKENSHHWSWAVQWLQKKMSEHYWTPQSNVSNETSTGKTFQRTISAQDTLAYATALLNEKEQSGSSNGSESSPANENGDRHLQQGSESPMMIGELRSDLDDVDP
T1 sequence (P27361 whole entry): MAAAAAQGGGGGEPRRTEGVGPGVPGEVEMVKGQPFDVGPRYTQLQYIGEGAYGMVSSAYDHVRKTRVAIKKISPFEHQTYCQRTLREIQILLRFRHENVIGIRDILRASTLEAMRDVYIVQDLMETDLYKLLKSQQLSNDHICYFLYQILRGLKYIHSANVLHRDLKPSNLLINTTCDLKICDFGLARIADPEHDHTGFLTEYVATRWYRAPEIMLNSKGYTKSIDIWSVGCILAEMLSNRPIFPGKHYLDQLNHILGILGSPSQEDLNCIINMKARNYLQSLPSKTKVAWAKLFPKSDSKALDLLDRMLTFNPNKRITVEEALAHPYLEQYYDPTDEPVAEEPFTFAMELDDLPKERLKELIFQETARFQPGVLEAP

Question: What does the source list for `Cn1c(NC[C@@H](N)Cc2ccccc2)nc(-c2ccncc2)c(-c2ccc3ccccc3c2)c1=O` [AMG-548]?
Answer: EC50 (STX4): 132 nM; Hill slope (STX4) (STX4; [1]): 0.27; EC50 (MYLK): 6.03 nM; Hill slope (MYLK) (MYLK; [1]): 0.44; EC50 (USP24): 2.69 nM; Hill slope (USP24) (USP24; [1]): 0.71

Question: Which Tm (MAPKAPK2p; MAPKAPK2p, living cells) does the source give for `Cc1cnc(Nc2ccc(F)cc2Cl)nc1-c1c[nH]c(C(=O)N[C@H](CO)c2cccc(Cl)c2)c1` [ERK 11e] here?
Answer: 47.18 °C

Question: What about the “ΔTm to DMSO” value (MAPKAPK2p; MAPKAPK2p, living cells) of the same compound?
Answer: -1.07 °C

Question: And the “Tm (MAPKAPK2p)” value (MAPKAPK2p; [2])?
Answer: 47.18 °C

Question: What about the “ΔTm to DMSO (MAPKAPK2p)” value (MAPKAPK2p; [2]) of the same compound?
Answer: −1.07 °C

Question: What about the Hill slope (MAPK3; TPP-CCR, living cells, MAPK3) of the same compound?
Answer: 0.59

Question: And the “Hill slope (MAPK3)” value (MAPK3; [1])?
Answer: 0.59

Question: What does the source list for `C[S+]([O-])c1ccc(-c2nc(-c3ccncc3)c(-c3ccc(F)cc3)[nH]2)cc1` (centres unmarked) [SB203580]?
Answer: activity against MAPKAPK3 (MAPKAPK3): inactivity; activity against MAPKAPK2 (MAPKAPK2): inactivity; EC50 (NAPG): 1.95 nM; Hill slope (NAPG) (NAPG; [1]): 0.24; activity against MAPK14 (MAPK14): high activity
